Measured values reported in patent publication US20260216219A1, “MODULATOR FOR PROMOTING BINDING OF BUTYROPHILIN 3A1/2A1” (priority 2023, published 2026).

These molecules were tested on MIAPaCa/FG2 cells (assay: EC50 assay of small molecule activated γδ T cells to kill tumor cells (10-fold dilution, 10^-12-10^-5 M)). Details: Homo sapiens, MIA PaCa-2, 20 h, read-out: MIApaca killing (nM).
Type: cell-based
Procedure: γδT cells and MIAPaCa/FG2 tumor cell lines were expanded and cultured in vitro. The MIAPaCa/FG2 cells were digested, and the cells were counted and resuspended in DMEM complete medium, the density of the cell suspension was adjusted and added into a 96-well plate at 5×10^3 cells/50 μL/well for overnight incubation. On the next day, the test compound and the control compound were diluted at a 10-fold ratio with γδT complete medium. 50 μL of diluted compound was transferred to the corresponding wells which had been plated with tumor cells, and the actual detection concentration was in the range of 10^−12-10^−5 M. γδT cells were resuspended in γδT complete medium, and the density of the cell suspension was adjusted according to the effector-target ratio of E:T=2:1, and then the cells were added to the corresponding wells at 1×10^4 cells/50 μL/well. After co-culture at 37° C., 5% CO2 for 20 hours, the cells were centrifuged. The supernatant was removed, and 50 μL of cell lysate containing luciferin substrate was added to each well. After standing for 18 minutes in the dark, the signal of chemiluminescence was detected. The EC50 value was calculated by four-parameter fitting, with the corresponding signal value of the well with only tumor cells as the minimum killing value, and the corresponding signal value of the well without tumor cells as the maximum killing value. The killing data of MIAPaCa/FG2 cells are as follows: […]
Work on `C/C(=C\CCP(=O)(N[C@@H](C)C(=O)OC(C)C)Oc1ccccc1)CO` (stereo partly drawn) [Control compound 1, Isopropyl (((E)-5-hydroxy-4-methylpent-3-en-1-yl)(phenoxy)phosphoryl)-L-alaninate, reference compound] yielded an EC50 of 0.57 nM.

Same assay, conditions: Homo sapiens, MIA PaCa-2; γδT cells co-cultured with MIAPaCa/FG2 cells, E:T=2:1, 20 hours; compound diluted 10-fold, 10^-12-10^-5 M; chemiluminescence; read-out: MIApaca killing
`CC(C)OC(=O)[C@H](C)NP(=O)(OC/C=C(/CO)C(F)(F)F)Oc1ccc(C[C@H](NC(=O)OCc2ccccc2)C(=O)OC2CCCC2)cc1` (stereo partly drawn) [Compound 6] gave an EC50 of 11.4 nM. `CC(C)OC(=O)[C@H](Cc1ccc(OP(=O)(N[C@@H](C)C(=O)OC2CCCC2)OC/C=C(/CO)C(F)(F)F)cc1)NC(=O)OCc1ccccc1` (stereo partly drawn) [Compound 7] was tested, and the EC50 was 9.6 nM.

Same assay, conditions: read-out: MIApaca killing; γδT cells co-cultured with MIAPaCa/FG2 cells, E:T=2:1, 20 hours; compound diluted 10-fold, 10^-12-10^-5 M; chemiluminescence
For `C/C(=C\CCP(=O)(N[C@@H](C)C(=O)OC(C)C)Oc1ccc(C[C@H](NC(=O)OCc2ccccc2)C(=O)O[C@@H]2CCOC2)cc1)CO` (stereo partly drawn) [Compound 3, (R)-tetrahydrofuran-3-yl (2S)-2-(benzyloxycarbonylamino)-3-[4-[[(E)-5-hydroxy-4-methyl-pent-3-enyl]-[[(1S)-2-isopropoxy-1-methyl-2-oxo-ethyl]amino]phosphoryl]oxyphenyl]propionate], the EC50 was 0.17 nM. `C/C(=C\CCP(=O)(N[C@@H](C)C(=O)OC(C)C)Oc1ccc(C[C@H](NC(=O)CCc2ccccc2)C(=O)OC2CCCC2)cc1)CO` (stereo partly drawn) [Compound 5, Cyclopentyl (2S)-2-(3-phenylpropionylamino)-3-[4-[[(E)-5-hydroxy-4-methyl-pent-3-enyl]-[[(1S)-2-isopropoxy-1-methyl-2-oxo-ethyl]amino]phosphoryl]oxyphenyl]propionate] gave an EC50 of 0.06 nM. `C/C(=C\CCP(=O)(N[C@@H](C)C(=O)OC(C)C)Oc1ccc(C[C@H](NC(=O)OCc2ccccc2)C(=O)O[C@H]2CCOC2)cc1)CO` (stereo partly drawn) [Compound 2, (S)-tetrahydrofuran-3-yl (2S)-2-(benzyloxycarbonylamino)-3-[4-[[(E)-5-hydroxy-4-methyl-pent-3-enyl]-[[(1S)-2-isopropoxy-1-methyl-2-oxo-ethyl]amino]phosphoryl]oxyphenyl]propionate] showed an EC50 of 0.12 nM. `C/C(=C\CCP(=O)(N[C@@H](C)C(=O)OC(C)C)Oc1ccc(C[C@H](NC(=O)OCc2ccccc2)C(=O)OC2CCCC2)cc1)CO` (stereo partly drawn) [Compound 1, Cyclopentyl (2S)-2-(benzyloxycarbonylamino)-3-[4-[[(E)-5-hydroxy-4-methyl-pent-3-enyl]-[[(1S)-2-isopropoxy-1-methyl-2-oxo-ethyl]amino]phosphoryl]oxyphenyl]propionate] gave an EC50 of 0.1 nM. `C/C(=C\CCP(=O)(N[C@@H](C)C(=O)OC1CCCC1)Oc1ccc(C[C@H](NC(=O)OCc2ccccc2)C(=O)OC(C)C)cc1)CO` (stereo partly drawn) [Compound 4, Isopropyl (2S)-2-(benzyloxycarbonylamino)-3-[4-[[(E)-5-hydroxy-4-methyl-pent-3-enyl]-[[(1S)-2-isocyclopentyloxy-1-methyl-2-oxo-ethyl]amino]phosphoryl]oxyphenyl]propionate] gave an EC50 of 0.07 nM.

Same assay, conditions: γδT cells co-cultured with MIAPaCa/FG2 cells, E:T=2:1, 20 hours; compound diluted 10-fold, 10^-12-10^-5 M; chemiluminescence; read-out: MIApaca killing
Molecule `C/C(=C\COP(=O)(O)OP(=O)(O)O)CO` [HMBPP control, reference compound] has an EC50 of 2.1 nM.

These molecules were tested on MIAPaCa/FG2 cells (assay: EC50 assay of small molecule activated γδ T cells to kill tumor cells (3-fold dilution, 0.05-100 nM)). Details: T-cell, γδT cells co-cultured with MIAPaCa/FG2 cells, E:T=2:1, 20 hours, compound diluted 3-fold, chemiluminescence, read-out: killing data of MIAPaCa/FG2 cells (EC50).
Type: cell-based
Procedure: γδT cells and MIAPaCa/FG2 tumor cell lines were expanded and cultured in vitro. MIAPaCa/FG2 cells were digested, and the cells were counted and resuspended in DMEM complete medium, the density of the cell suspension was adjusted and added into a 96-well plate at 5×10^3 cells/50 μL/well for overnight incubation. On the next day, the test compound and the control compound were diluted at a 3-fold ratio with DMSO, and 4 μL of the diluted compound was added to 96 μL of culture medium for 25-fold dilution. 5 μL of 25-fold diluted compound was transferred to the corresponding well which had been plated with tumor cells, and the actual detection concentration was in the range of 0.05-100 nM. γδT cells were resuspended in γδT complete medium, and the density of the cell suspension was adjusted according to the effector-target ratio of E:T=2:1, and then the cell was added to the corresponding well at 1×10^4 cells/100 μL/well. After co-culture at 37° C., 5% CO2 for 20 hours, the cells were centrifuged. The supernatant was removed, and 50 μL of cell lysate containing […] substrate was added to each well. After standing for 18 minutes in the dark, the signal of chemiluminescence was detected. The EC50 value was calculated by four-parameter fitting, with the corresponding signal value of the well with only tumor cells as the minimum killing value, and the corresponding value of the well without tumor cells as the maximum killing value. The killing data of MIAPaCa/FG2 cells are as follows: […]
For `C/C(=C\CCP(=O)(N[C@@H](C)C(=O)OC(C)C)Oc1ccccc1)CO` (stereo partly drawn) [Control compound 1, Isopropyl (((E)-5-hydroxy-4-methylpent-3-en-1-yl)(phenoxy)phosphoryl)-L-alaninate, reference compound], the EC50 was 0.53 nM.

Same assay, conditions: γδT cells co-cultured with MIAPaCa/FG2 cells, E:T=2:1, 20 hours, compound diluted 3-fold, chemiluminescence, read-out: killing data of MIAPaCa/FG2 cells (EC50)
For `C/C(=C\CCP(=O)(N[C@@H](C)C(=O)OC(C)C)Oc1ccc(C[C@H](NCCc2ccccc2)C(=O)O[C@H]2CCOC2)cc1)CO` (stereo partly drawn) [Compound 11, (S)-Tetrahydrofuran-3-yl (2S)-3-(4-((((E)-5-hydroxy-4-methylpent-3-en-1-yl)(((S)-1-isopropoxy-1-oxopropan-2-yl)amino)phosphor yl)oxy)phenyl)-2-(phenethylamino)propionate], the EC50 was 41.7 nM. `C/C(=C\CC[P@](=O)(N[C@@H](C)C(=O)NC(C)C)Oc1ccc(C[C@H](NCCCc2ccccc2)C(=O)O[C@H]2CCOC2)cc1)CO` [Compound 15] showed an EC50 of 1.6 nM. With `C/C(=C\CCP(=O)(N[C@@H](C)C(=O)OCC(C)C)Oc1ccc(C[C@H](NCCCc2ccccc2)C(=O)O[C@H]2CCOC2)cc1)CO` (stereo partly drawn) [Compound 12, (S)-tetrahydrofuran-3-yl (2S)-3-(4-((((E)-5-hydroxy-4-methylpent-3-en-1-yl)(((S)-1-isobutoxy-1-oxopropan-2-yl)amino)phosphoryl)oxy)phenyl)-2-((3-phenylpropyl)amino)propionate] the EC50 was 0.011 nM. In the case of `CCC(CC)OC(=O)[C@H](C)NP(=O)(CC/C=C(\C)CO)Oc1ccc(C[C@H](NCCCc2ccccc2)C(=O)O[C@H]2CCOC2)cc1` (stereo partly drawn) [Compound 13, (S)-tetrahydrofuran-3-yl (2S)-3-(4-((((E)-5-hydroxy-4-methylpent-3-en-1-yl)(((S)-1-oxo-1-(pentan-3-yloxy)propan-2-yl)amino)phosphoryl)oxy)phenyl)-2-((3-phenylpropyl)amino)propionate], the EC50 is reported as 0.42 nM. `C/C(=C\CCP(=O)(N[C@@H](C)C(=O)OC(C)C)Oc1ccc(C[C@H](NCCCc2ccccc2)C(=O)O[C@H]2CCOC2)cc1)CO` (stereo partly drawn) [Compound 9] gave an EC50 of 0.012 nM. Work on `C/C(=C\CCP(=O)(N[C@@H](C)C(=O)OC(C)C)Oc1ccc(C[C@H](NCCCc2ccccc2)C(=O)O[C@@H]2CCOC2)cc1)CO` (stereo partly drawn) [Compound 8] yielded an EC50 of 0.052 nM. With `C/C(=C\CC[P@@](=O)(N[C@@H](C)C(=O)NC(C)C)Oc1ccc(C[C@H](NCCCc2ccccc2)C(=O)O[C@H]2CCOC2)cc1)CO` [Compound 14] the EC50 was 0.016 nM. `C/C(=C\CCP(=O)(N[C@@H](C)C(=O)OCC(C)C)Oc1ccc(C[C@H](NCCCc2ccccc2)C(=O)NC(C)C)cc1)CO` (stereo partly drawn) [Compound 16, Isobutyl (((E)-5-hydroxy-4-methylpent-3-en-1-yl)(4-((S)-3-(isopropylamino)-3-oxo-2-((3-phenylpropyl)amino)propyl)phenoxy)phosphoryl)-L-alaninate] showed an EC50 of 0.011 nM.
